In patent publication US11066692B2, “Real-time monitoring” (PROMEGA CORPORATION, priority 2012, dated 2021):

What was measured:
A549 cells = experiment: Measuring cell death in real-time; assay type: cell-based; details: 1% final concentration, A549 cells 1,000 cells/well; 40 μM PBI-4600, 100 ng/ml NANOLUC
Experimental: A549 cells were plated into wells of a 384-well plate at 1,000 cells/well in the presence of 40 μM PBI-4600 pro-substrate and 100 ng/ml NANOLUC luciferase protein sensor. The cells were incubated and the luminescence signal was monitored at various time points on a Tecan M1000 plate reader. Triton X-100 was then added to a final concentration of 1%, and compared to control cells that received media only. Luminescence was continually monitored.

[1] = tested on: reactive oxygen species (ROS) in A549 cells; experiment: Real-time monitoring of reactive oxygen species (ROS); assay type: cell-based; details: 200 μM, 10, 25 or 50 μM PBI-4759, 40 ng/ml NANOLUC
Experimental: A549 cells were plated at 1,000 cells/well into wells of a 384-well plate and incubated overnight. Then, either 10, 25, or 50 μM of a pro-furimazine hydrogen peroxide substrate, PBI-4759, and 40 ng/ml NANOLUC luciferase protein sensor were added to the cells. Menadione (200 μM), a known ROS inducer, or a vehicle control (DMSO) was added to the cells. Luminescence was monitored over time using a Tecan M1000 plate reader.

Cardiomyocyte cells = experiment: Real-time measuring of drug induced changes in viability; assay type: cell-based; details: 200 μg/ml final, after multiple days of cell growth; 40 uM PBI-4600, 100 ng/ml NANOLUC
Experimental: Cardiomyocyte cells were plated and grown in media containing 40 uM PBI-4600 pro-substrate and 100 ng/ml NANOLUC luciferase protein sensor in a 37° C., 5% CO2 incubator. At various time points, luminescence was monitored on a Tecan M1000 plate reader. After multiple days of cell growth, digitonin was added to a final concentration of 200 μg/ml. Luminescence was read continually, starting immediately after digitonin addition.

[2] = Stability of pro-furimazine substrate PBI-4600 in cell culture media (HPLC purity); assay type: physicochemical; details: 50 μM in RPMI cell culture media, room temperature or 37° C., up to 190 hours
Experimental: PBI-4600 (50 μM) was incubated in RPMI cell culture media at room temperature (RT) or 37° C. for increasing time points, up to 190 hours. HPLC analysis was performed to determine the purity of PBI-4600 at various time points.

[3] = tested on: caspase activation in A549 cells; experiment: Real-time monitoring of caspase activation; assay type: cell-based; details: 4 μM final concentration, 50 μM PBI-3741, 40 ng/ml NANOLUC
Experimental: A549 cells were plated at 1,000 cells/well into wells of a 384-well assay plate. 50 μM PBI-3741 (a pro-furimazine caspase substrate) and 40 ng/ml NANOLUC luciferase enzyme were added to the cells. To induce apoptosis, staurosporine was added to the cells at a 4 μM final concentration. The induction of apoptosis and activation of caspase were measured in real-time.

[4] = Protein sensor stability in cell culture; assay type: physicochemical; details: 40 ng/ml in A549 cell culture with 50 μM PBI-4600; signal compared with freshly added sensor
Experimental: A549 cells were plated at 250 cells/well into wells of a 384-well assay plate. 50 μM PBI-4600 pro-substrate and 40 ng/ml NANOLUC luciferase protein sensor were added to the cell culture and incubated for 72 hours. After incubation, 40 ng/ml NANOLUC luciferase protein sensor was added to the cell culture, and the signal was monitored 1.5 hours later.

Triton X-100
change in luminescence signal (cell viability) after addition (A549 cells): rapid decrease in signal

CC1=CC(=O)c2ccccc2C1=O [menadione, Menadione]
time at which maximum luminescence signal was reached after addition [1]: 5 h

C[C@@H]1CC[C@@]2(OC1)O[C@H]1[C@@H](O)[C@H]3[C@@H]4CC[C@H]5C[C@@H](O[C@@H]6O[C@H](CO)[C@H](O[C@@H]7O[C@H](CO)[C@@H](O)[C@H](O[C@@H]8OC[C@@H](O)[C@H](O)[C@H]8O)[C@H]7O[C@@H]7O[C@H](CO)[C@H](O)[C@H](O[C@@H]8O[C@H](CO)[C@@H](O)[C@H](O)[C@H]8O)[C@H]7O)[C@H](O)[C@H]6O)[C@H](O)C[C@]5(C)[C@H]4CC[C@]3(C)[C@H]1[C@@H]2C [digitonin]
change in luminescence signal (cell viability) after addition (Cardiomyocyte cells): rapid decrease in signal

CC1=C(C)C(=O)C(C(C)(C)CC(=O)N(C)CCN(C)C(=O)Oc2c(Cc3ccco3)nc3c(Cc4ccccc4)nc(-c4ccccc4)cn23)=C(C)C1=O [PBI-4600]
purity of PBI-4600 (HPLC) after incubation [2]: greater than 90%

CN[C@@H]1C[C@H]2O[C@@](C)([C@@H]1OC)n1c3ccccc3c3c4c(c5c6ccccc6n2c5c31)C(=O)NC4 [staurosporine]
change in luminescence (caspase activation) during treatment [3]: increase in luminescence

B1: NANOLUC luciferase: modified, enhanced luciferase enzyme from Oplophorus, Promega Corporation, SEQ ID NO: 1 (protein)
chain: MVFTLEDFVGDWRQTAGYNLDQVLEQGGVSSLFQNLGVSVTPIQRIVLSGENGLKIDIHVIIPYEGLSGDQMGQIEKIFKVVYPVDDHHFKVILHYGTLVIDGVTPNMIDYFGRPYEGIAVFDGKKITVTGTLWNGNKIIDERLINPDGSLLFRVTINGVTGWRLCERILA
time stable in cell culture conditions [4]: at least 72 h
